Laboratory results as given in PubChem BioAssay AID2060621 (Molecular Pharmacology Branch, DTP, NCI, 2025).

System: 324938-238-R-J1-PDC complex spheroids viability
Experiment: Anticancer human tumor 324938-238-R-J1-PDC patient-derived bladder carcinoma cell line growth inhibition [CLK]
Settings: for IC50: curve of first compound; for viability, T/C: stronger effect = lower value
Summary of the method: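 Patient-derived tumor cells grown as complex spheroids with HUVEC endothelial cells and mesenchymal stem cells, treated with drug combinations. Concentrations descend in half-log steps from near clinical Cmax, or from 10 microM if Cmax unknown.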

[1] = second compound 0.0316 µM, first compound 0.0316 µM
[2] = second compound 0.0316 µM, first compound 0.1 µM
[3] = second compound 0.0316 µM, first compound 0.316 µM
[4] = second compound 0.0316 µM, first compound 1 µM
[5] = second compound 0.0316 µM, first compound 3.16 µM
[6] = second compound 0.0316 µM, first compound 10 µM
[7] = second compound 0.1 µM, first compound 0.0316 µM
[8] = second compound 0.1 µM, first compound 0.1 µM
[9] = second compound 0.1 µM, first compound 0.316 µM
[10] = second compound 0.1 µM, first compound 1 µM
[11] = second compound 0.1 µM, first compound 3.16 µM
[12] = second compound 0.1 µM, first compound 10 µM
[13] = second compound 0.316 µM, first compound 0.0316 µM
[14] = second compound 0.316 µM, first compound 0.1 µM
[15] = second compound 0.316 µM, first compound 0.316 µM
[16] = second compound 0.316 µM, first compound 1 µM
[17] = second compound 0.316 µM, first compound 3.16 µM
[18] = second compound 0.316 µM, first compound 10 µM
[19] = second compound 1 µM, first compound 0.0316 µM
[20] = second compound 1 µM, first compound 0.1 µM
[21] = second compound 1 µM, first compound 0.316 µM
[22] = second compound 1 µM, first compound 1 µM
[23] = second compound 1 µM, first compound 3.16 µM
[24] = second compound 1 µM, first compound 10 µM
[25] = second compound 3.16 µM, first compound 0.0316 µM
[26] = second compound 3.16 µM, first compound 0.1 µM
[27] = second compound 3.16 µM, first compound 0.316 µM
[28] = second compound 3.16 µM, first compound 1 µM
[29] = second compound 3.16 µM, first compound 3.16 µM
[30] = second compound 3.16 µM, first compound 10 µM
[31] = second compound 10 µM, first compound 0.0316 µM
[32] = second compound 10 µM, first compound 0.1 µM
[33] = second compound 10 µM, first compound 0.316 µM
[34] = second compound 10 µM, first compound 1 µM
[35] = second compound 10 µM, first compound 3.16 µM
[36] = second compound 10 µM, first compound 10 µM
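Further: viability read after seven days of drug exposure.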
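Wherever viability, T/C is given: 100% = DMSO vehicle control wells.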

C=CC(=O)N1CCN(c2nc(=O)n(-c3c(C)ccnc3C(C)C)c3nc(-c4c(O)cccc4F)c(F)cc23)C(C)C1 (stereo unspecified) + CNC(=O)c1ccc(Nc2nc(OC3CCCC3)c3c(-c4ccc5nc(C)oc5c4)c[nH]c3n2)c(OC)c1
IC50 (second compound 0.0316 µM): > 10000 nM
IC50 (second compound 0.1 µM): < 31.6 nM
IC50 (second compound 0.316 µM): < 31.6 nM
IC50 (second compound 1 µM): < 31.6 nM
IC50 (second compound 3.16 µM): < 31.6 nM
IC50 (second compound 10 µM): < 31.6 nM
viability, T/C [1]: 92.7%
viability, T/C [2]: 95.3%
viability, T/C [3]: 96.2%
viability, T/C [4]: 102%
viability, T/C [5]: 88.8%
viability, T/C [6]: 81.4%
viability, T/C [7]: 32.6%
viability, T/C [8]: 30.8%
viability, T/C [9]: 27.9%
viability, T/C [10]: 35.1%
viability, T/C [11]: 33.5%
viability, T/C [12]: 31.6%
viability, T/C [13]: 20.4%
viability, T/C [14]: 17.4%
viability, T/C [15]: 20.7%
viability, T/C [16]: 20.4%
viability, T/C [17]: 23.9%
viability, T/C [18]: 27.4%
viability, T/C [19]: 15.3%
viability, T/C [20]: 16.1%
viability, T/C [21]: 16.5%
viability, T/C [22]: 19.3%
viability, T/C [23]: 20.5%
viability, T/C [24]: 21.5%
viability, T/C [25]: 18.3%
viability, T/C [26]: 18.4%
viability, T/C [27]: 20.4%
viability, T/C [28]: 18.8%
viability, T/C [29]: 23.7%
viability, T/C [30]: 25.5%
viability, T/C [31]: 19.4%
viability, T/C [32]: 15.6%
viability, T/C [33]: 18.5%
viability, T/C [34]: 21%
viability, T/C [35]: 25.5%
viability, T/C [36]: 25.7%

CC(CO)NC(=O)c1cc(-c2ccc(Cl)cc2)nn(-c2cnn(C)c2)c1=O (stereo unspecified) + CN1CCN(c2cc(C(=O)Nc3cc4cc(-c5cnn(C)c5)ccc4cn3)ccn2)CC1
IC50 (second compound 0.0316 µM): > 10000 nM
IC50 (second compound 0.1 µM): 4990 nM
IC50 (second compound 0.316 µM): < 31.6 nM
IC50 (second compound 1 µM): < 31.6 nM
IC50 (second compound 3.16 µM): < 31.6 nM
IC50 (second compound 10 µM): < 31.6 nM
viability, T/C [1]: 84.4%
viability, T/C [2]: 92.8%
viability, T/C [3]: 83.5%
viability, T/C [4]: 81%
viability, T/C [5]: 63.6%
viability, T/C [6]: 50.9%
viability, T/C [7]: 60.7%
viability, T/C [8]: 62.8%
viability, T/C [9]: 63.3%
viability, T/C [10]: 55.7%
viability, T/C [11]: 57.3%
viability, T/C [12]: 41.3%
viability, T/C [13]: 23.5%
viability, T/C [14]: 25.9%
viability, T/C [15]: 25.3%
viability, T/C [16]: 25.8%
viability, T/C [17]: 26.5%
viability, T/C [18]: 21.4%
viability, T/C [19]: 1.59%
viability, T/C [20]: 1.8%
viability, T/C [21]: 1.38%
viability, T/C [22]: 1.23%
viability, T/C [23]: 1.2%
viability, T/C [24]: 1.04%
viability, T/C [25]: 0.16%
viability, T/C [26]: 0.21%
viability, T/C [27]: 0.21%
viability, T/C [28]: 0.15%
viability, T/C [29]: 0.25%
viability, T/C [30]: 0.67%
viability, T/C [31]: 0.13%
viability, T/C [32]: 0.19%
viability, T/C [33]: 0.25%
viability, T/C [34]: 0.2%
viability, T/C [35]: 0.18%
viability, T/C [36]: 0.22%

CC(Nc1ccc2c(c1)OCCn1cc(N3C(=O)OCC3C(F)F)nc1-2)C(N)=O (stereo unspecified) + CN1CCN(c2cc(C(=O)Nc3cc4cc(-c5cnn(C)c5)ccc4cn3)ccn2)CC1
IC50 (second compound 0.0316 µM): 167 nM
IC50 (second compound 0.1 µM): < 31.6 nM
IC50 (second compound 0.316 µM): < 31.6 nM
IC50 (second compound 1 µM): < 31.6 nM
IC50 (second compound 3.16 µM): < 31.6 nM
IC50 (second compound 10 µM): < 31.6 nM
viability, T/C [1]: 65.8%
viability, T/C [2]: 58.5%
viability, T/C [3]: 40%
viability, T/C [4]: 29.9%
viability, T/C [5]: 24.4%
viability, T/C [6]: 15.8%
viability, T/C [7]: 48.2%
viability, T/C [8]: 40%
viability, T/C [9]: 29.6%
viability, T/C [10]: 26.5%
viability, T/C [11]: 23.3%
viability, T/C [12]: 15.5%
viability, T/C [13]: 21.3%
viability, T/C [14]: 20.8%
viability, T/C [15]: 15.2%
viability, T/C [16]: 14.1%
viability, T/C [17]: 11.8%
viability, T/C [18]: 9.85%
viability, T/C [19]: 1.49%
viability, T/C [20]: 2.08%
viability, T/C [21]: 1.71%
viability, T/C [22]: 0.86%
viability, T/C [23]: 0.52%
viability, T/C [24]: 0.51%
viability, T/C [25]: 0.1%
viability, T/C [26]: 0.15%
viability, T/C [27]: 0.14%
viability, T/C [28]: 0.1%
viability, T/C [29]: 0.16%
viability, T/C [30]: 0.18%
viability, T/C [31]: 0.07%
viability, T/C [32]: 0.14%
viability, T/C [33]: 0.19%
viability, T/C [34]: 0.12%
viability, T/C [35]: 0.17%
viability, T/C [36]: 0.2%
